In US7906334B2, “Method for reproducing conifers by somatic embryogenesis using lactose as a carbon source” (Cellfor Inc., priority 2003, dated 2011):

What was measured:
[1] = tested on: Douglas fir embryogenic tissue, cell line DF-2; experiment: Effects of carbohydrates on liquid maintenance of Douglas fir embryogenic tissue; assay type: cell-based, Pseudotsuga menziesii (Douglas fir); settings: 3 weeks suspension maintenance/bulking-up, 0.5% galactose, 1% lactose, 0.5% mannitol
Method: The culture medium for Douglas fir was TX medium (see Table A) with the following additives: glutamine 100 mg., Casein hydrolysate 100 mg., and pH 5.8. The following compounds were added into the basal medium for Douglas fir somatic embryo development at different stages: • 1) Induction medium: 18 μM 2,4-D and 9 μM BA, phytagel 0.28%, sucrose 1% • 2) Solid maintenance medium: 9 μM 2,4-D and 4.5 μM BA, phytagel 0.28%, sucrose 1%. • 3) Liquid maintenance and bulking-up medium: 9 μM 2,4-D and 4.5 μM BA, different carbon sources for experiments. • 4) Liquid pre-treatment medium: 20 (first week) or 30 μM ABA (second week), 10% PEG4000 (first week) or PEG1500 (second week), different carbon sources as described in examples below. • 5) Solid maturation media: TX (Table A) plus 0.02% NH4NO3 • Medium I. 40 μM ABA, 10% PEG 1500, maltose 2.5%, phytagel 0.6% • Medium II. 60 μM ABA, 10% PEG1500, maltose 2.5% and sucrose 1%, phytagel 0.8% • Medium III. 70 μM ABA, 6% PEG1500, sucrose 6%, phytagel 1%.
Embryogenic tissue was induced from immature zygotic embryos. The cones and seeds were surface-sterilised as described for pines, and embryos were dissected out from megagametophytes. The embryos, with the attachment of suspensors to their megagametophytes, were placed on the surface of induction medium. The culture was kept in darkness at 23° C. Embryogenic tissue was sub-cultured once every two weeks onto solid maintenance medium.
Embryogenic tissue of Douglas fir was collected from solid maintenance culture and one gram of tissue was transferred into a 200 ml flask containing 50 ml TX (see Table A) liquid maintenance medium. The liquid maintenance medium was supplied with different sugars (Table 8).
The tissue was drained, weighed and sub-cultured once per week. During a culture period of three weeks, the highest tissue growth was found in the culture with glucose as the major carbon source. The media containing sucrose, maltose and galactose also supported a fast tissue growth. With these latter sugars, tissue increased to 68 to 100 fold in three weeks. Tissue grew little in the media containing lactose or mannitol. […] Similar results were obtained within two cell lines, DF-7A and DF-2.

[2] = tested on: Douglas fir embryogenic tissue; experiment: Medium osmolarity before and after one-week tissue inoculation; assay type: cell-based, Pseudotsuga menziesii (Douglas fir); settings: medium with 0.5% galactose, 1% lactose, 0.5% mannitol or 0.5% glucose
Description: More change of medium osmolarity occurred during week 2 than week 1. The medium osmolarity changed little when lactose or mannitol was used in the media.

[3] = tested on: loblolly pine lines LP1 and LP3; experiment: Effect of galactose and galactose-containing sugars during proliferation and prematuration on SE yield; assay type: cell-based, Pinus taeda (loblolly pine); design: Amount of tissue at the end of the preculture II stage: unit not given here; settings: for # SE/g FW / Amount of tissue at the end of the preculture II stage: 1% sucrose, 1.5% maltose, 1.5% lactose or 0.75% galactose
Method: The finding that loblolly pine cultures were capable of utilising galactose is unique. In order to further investigate these phenomenon two lines, LP1 and LP3, were cultured on semi-solid TX medium containing 1.0% lactose and 0.5% sucrose. Cultures were maintained by subculturing the embryogenic tissue every 10 to 14 days to fresh media. All cultures were incubated at 23° C. in the dark. Suspension cultures were initiated as described in Example 3, however, TX medium was supplemented with either 1% sucrose, 1.5% maltose, 1.5% lactose, or 0.75% galactose. These cultures were maintained in liquid media for 4 weeks by weekly transfers to fresh maintenance or prematuration media. After the 4˜week period, 1 ml of the liquid medium containing 0.1 g of tissue consisting of early stage somatic embryos was plated on each […] plates containing ½ LV maturation medium. This medium contained 120 μM ABA and 6.0% sucrose and 1% Phytagel. Eight to ten weeks later, mature somatic embryos were counted and treatments were evaluated based on the number of somatic embryos per gram fresh weight (Table 5).

[4] = tested on: radiata pine megagametophytes containing immature zygotic embryos; experiment: Effect of carbon source on induction of radiata pine; assay type: cell-based, Pinus radiata (radiata pine)
Method: Female gametophytes containing immature zygotic embryos were used as explants. The cones were surface sterilised in 10% bleach solution for 15 min. They were rinsed 3 times with sterile water, air dried and stored in polyethylene bags at 4° C. until used. Seeds were sterilised in 3% hydrogen peroxide containing 0.1% Tween 20 and rinsed in sterile deionized water. Megagametophytes containing the immature embryos were plated on MSG (standard radiata pine medium containing sucrose, Table B) and on TX medium (Table A) supplemented with 2.2 mg/l 2,4-D, 1 mg/l BA and 0.3% Phytagel and containing 1.5% galactose and 0.5% sucrose. Casein hydrolysate was reduced to 1000 mg/l (TXR medium).
Cultures were maintained on the two media by subculturing the embryogenic tissue every 10 to 14 days to fresh media. All cultures were incubated at 23° C. in the dark. Suspension cultures were initiated as 2 g of tissue were introduced to 50 ml of TXR liquid medium containing 1.0% sucrose. […]
One ml of TXR medium containing 0.1 g tissue consisting of early stage somatic embryos was plated on modified ½ LV maturation medium (Table C) in which glutamine was reduced to 500 mg/l and casein hydrolysate to 1000 mg/l. […] Twelve to fourteen weeks later, mature somatic embryos were counted and treatments were evaluated based on the number of somatic embryos per gram fresh weight.

[5] = tested on: radiata pine lines RP1, RP2, RP3, and RP4; experiment: Effect of carbon source on somatic embryo development of radiata pine in liquid cultures; assay type: cell-based, Pinus radiata (radiata pine); settings: for # SE/g FW ± sd / Grams FW at the end of proliferation stage (from 1.5 g): 1.0% sucrose or 3.0% galactose in TXR prematuration media I and II; for tissue morphology: tissue induced and maintained on MSG sucrose or TXR galactose
Description: Tissue induced on MSG containing sucrose was further maintained on MSG sucrose medium, and tissue induced on TXR galactose was maintained on TXR medium containing galactose as described in Example 6. The tissue morphology of the lines induced on galactose was different from that induced on sucrose. […] The lines used in this study were RP1, RP2, RP3, and RP4.
Suspension cultures were initiated as described in Example 6. These cultures were maintained in liquid media for 20-28 days by transfers to fresh maintenance medium every 10 to 14 days. Up to five fold increase of the tissue was estimated at the end of each 10 to 14 day transfer.
In order to study the effect of galactose on embryo development after the proliferation stage, 2 g tissue was further transferred to 250 ml flasks, containing 50 ml of TXR prematuration medium I supplemented with either 1.0% sucrose or 3.0% galactose. As with loblolly pine cultures, prematuration I requires reduction of hormones either by reducing the auxin and cytokinin concentrations to optimally about 1/20 of the concentration of proliferation step, or by adding charcoal at about 0.01 to 1%, or a combination of both.
After the 10-14 day period, 1.5 g tissue was transferred to 250 ml flasks containing 50 ml TXR prematuration medium II to which either 1.0% sucrose or 3.0% galactose and 90 μM ABA were added.
Early stage somatic embryos were collected after 10 to 14 days and matured on modified ½ LV maturation medium as described in Example 6.

[6] = tested on: Suspension cultures of loblolly lines LP1, LP2, LP3, LP4 and LP5; experiment: Effect of carbon source on liquid maintenance: growth rate and yield of somatic embryos; assay type: cell-based, Pinus taeda (loblolly pine); settings: 1% sucrose; for # SE/g FW ± sd: 1.5% maltose or 1.5% lactose for 4 weeks in liquid, then 8-10 weeks on 1/2 LV maturation medium; for Average amount of tissue produced after 4 weeks in liquid (FW g): 1.5% maltose or 1.5% lactose in maintenance and prematuration I and II, started with 2 g
Method: Suspension cultures of loblolly lines LP1, LP2, LP3, LP4 and LP5 were started with 2 g of tissue introduced to 50 ml of TX liquid medium containing different sugars—1% sucrose, 1.5% maltose, or 1.5% lactose. These cultures were maintained in the same liquid media for 2 weeks by weekly transfers to fresh maintenance medium containing the above sugars. Then, 2 g of tissue produced in each maintenance medium was transferred to prematuration media I, containing the same carbon source as the maintenance media. After one week, 1.5 g of tissue from each prematuration medium I was transferred to prematuration media II containing the same sugars. After the 4 week period in liquid media, early stage somatic embryos were collected and plated on ½ LV maturation medium containing 120 μM ABA and 6.0% sucrose and 1% Phytagel. Eight to ten weeks later, mature somatic embryos were counted and treatments were evaluated based on the number of somatic embryos per gram fresh weight (SE/g FW). Table 2 summarises the tissue yield at the end of the 4-week period and the number of mature somatic embryos produced for each line.

[7] = tested on: loblolly pine embryogenic tissue; experiment: Effect of carbon source on solid maintenance of loblolly pine; assay type: cell-based, Pinus taeda (loblolly pine); settings: semi-solid TX medium; 1% sucrose, or 1.5% lactose and 0.025% glucose
Method: Tissue induced on sucrose from Example 1 was further maintained on the semi-solid TX medium containing 1% sucrose, and tissue induced on lactose was maintained on semi-solid TX medium containing 1.5% lactose and 0.025% glucose. The tissue morphology of the lines induced on lactose was different from the ones induced on sucrose. […] In order to further increase the proliferation rate, 0.5% sucrose was added to the TX 1.5% lactose-containing medium in place of 0.025% glucose. This medium provided a reasonable bulk-up rate, and growth of embryos was more synchronized than in the 1% sucrose medium.

[8] = additional glucose 0%, 0.5% glucose, 1% sucrose, 1% maltose

Row | SMILES | Tissue growth (fold, mean ± SD) [1, 8] | Tissue growth (fold, mean ± SD) ([1]; additional glucose 0.025%) | Osmolarity before inoculation (mmol/kg, mean ± SD) [2] | # SE/g FW ([3]; line LP1) | Amount of tissue at the end of the preculture II stage ([3]; line LP1) | # SE/g FW ([3]; line LP3) | Amount of tissue at the end of the preculture II stage ([3]; line LP3) | Induction success, galactose compared with sucrose medium ([4]; galactose as carbon source) | subsequent yields of mature embryos, galactose compared with sucrose medium ([4]; tissues induced on galactose) | # SE/g FW ± sd [5] | Grams FW at the end of proliferation stage (from 1.5 g) [5] | Tissue growth increase ([5]; galactose as carbon source) | number of mature somatic embryos at the end of maturation ([5]; galactose as carbon source) | tissue morphology [5] | # SE/g FW ± sd [6] | Average amount of tissue produced after 4 weeks in liquid (FW g) [6] | tissue morphology [7] | embryos produced ([3]; line LP1, as stated in the text) | amount of tissue at the end of the 4 week-liquid period ([3]; line LP3, sucrose as sole carbon source)
1 | O=C[C@H](O)[C@@H](O)[C@@H](O)[C@H](O)CO [Galactose] | 68.64 ± 4.58 fold | 97.02 ± 2.67 fold | 71.67 ± 1.15 mmol/kg | 216 ± 8 SE/g FW | 59.45 | 172 ± 5 SE/g FW | 8.65 | greater than three times higher | almost double | 405.3 ± 10 SE/g FW | 9.5 ± 2 g | more than 5 times | doubled | more early stage immature embryos and a limited amount of suspensor type of surrounding tissue |  |  |  |  | 
2 | OC[C@H]1O[C@H](O[C@H]2[C@H](O)[C@@H](O)[C@H](O)O[C@@H]2CO)[C@H](O)[C@@H](O)[C@@H]1O [Maltose, maltose] | 85.01 ± 1.71 fold |  |  | 106 ± 4 SE/g FW | 232.18 | 160 ± 5 SE/g FW | 118.22 |  |  |  |  |  |  |  | 209 ± 28 SE/g FW | 204.45 g |  |  | 
3 | OC[C@H]1O[C@@](CO)(O[C@H]2O[C@H](CO)[C@@H](O)[C@H](O)[C@H]2O)[C@@H](O)[C@@H]1O [Sucrose, sucrose] | 100.94 ± 12.0 fold |  |  | 11 ± 3 SE/g FW | 121.22 | 100 ± 6 SE/g FW | 1278.18 |  |  | 213.3 ± 6 SE/g FW | 11.05 ± 2 g |  |  | predominantly suspensor type tissue and very few embryos | 126 ± 20 SE/g FW | 592.06 g | Predominantly suspensor type tissue and very few embryos | 11 embryos | 1278.18 g
4 | OC[C@@H](O)[C@@H](O)[C@H](O)[C@H](O)CO [mannitol, reference compound] | 1.60 ± 0.13 fold | 3.34 ± 0.22 fold | 76 ± 1 mmol/kg |  |  |  |  |  |  |  |  |  |  |  |  |  |  |  | 
